Experimental data: ChEMBL document CHEMBL5335768, “Expanding the knowledge around antitubercular 5-(2-aminothiazol-4-yl)isoxazole-3-carboxamides: Hit-to-lead optimization and release of a novel antitubercular chemotype via scaffold derivatization” (Eur J Med Chem, 2023)

What was measured:
[1] = system: Mycobacterium tuberculosis; test: microbe, parasite or virus in culture; details: IC2, 504 h
[2] = system: Mycobacterium tuberculosis; test: Antitubercular activity against STR/INH/RIF/EMB/ETH-resistant Mycobacterium tuberculosis IC1 assessed as inhibition of bacterial growth measured after 3 weeks by broth microdilution method; assay type: functional; details: IC1, 504 h

## NNC(=O)c1ccncc1 [ISONIAZID]
[1]
  MIC90: > 0.2 µg/mL
[2]
  MIC90: > 0.2 µg/mL
